Test results reported in ChEMBL document CHEMBL4038342, “Hydrophilic, Potent, and Selective 7-Substituted 2-Aminoquinolines as Improved Human Neuronal Nitric Oxide Synthase Inhibitors” (J Med Chem, 2017).

Assays:
[1] = target: Nitric oxide synthase 1 (Rattus norvegicus, UniProt P29476)
[2] = target: Nitric oxide synthase 1 (Homo sapiens, UniProt P29475)
[3] = target: T1, Nitric oxide synthase 3 (Bos taurus, UniProt P29473); assay: Inhibition of recombinant bovine eNOS expressed in Escherichia coli using L-arginine as substrate after 30 secs by hemoglobin capture assay
T1 sequence (P29473 whole entry): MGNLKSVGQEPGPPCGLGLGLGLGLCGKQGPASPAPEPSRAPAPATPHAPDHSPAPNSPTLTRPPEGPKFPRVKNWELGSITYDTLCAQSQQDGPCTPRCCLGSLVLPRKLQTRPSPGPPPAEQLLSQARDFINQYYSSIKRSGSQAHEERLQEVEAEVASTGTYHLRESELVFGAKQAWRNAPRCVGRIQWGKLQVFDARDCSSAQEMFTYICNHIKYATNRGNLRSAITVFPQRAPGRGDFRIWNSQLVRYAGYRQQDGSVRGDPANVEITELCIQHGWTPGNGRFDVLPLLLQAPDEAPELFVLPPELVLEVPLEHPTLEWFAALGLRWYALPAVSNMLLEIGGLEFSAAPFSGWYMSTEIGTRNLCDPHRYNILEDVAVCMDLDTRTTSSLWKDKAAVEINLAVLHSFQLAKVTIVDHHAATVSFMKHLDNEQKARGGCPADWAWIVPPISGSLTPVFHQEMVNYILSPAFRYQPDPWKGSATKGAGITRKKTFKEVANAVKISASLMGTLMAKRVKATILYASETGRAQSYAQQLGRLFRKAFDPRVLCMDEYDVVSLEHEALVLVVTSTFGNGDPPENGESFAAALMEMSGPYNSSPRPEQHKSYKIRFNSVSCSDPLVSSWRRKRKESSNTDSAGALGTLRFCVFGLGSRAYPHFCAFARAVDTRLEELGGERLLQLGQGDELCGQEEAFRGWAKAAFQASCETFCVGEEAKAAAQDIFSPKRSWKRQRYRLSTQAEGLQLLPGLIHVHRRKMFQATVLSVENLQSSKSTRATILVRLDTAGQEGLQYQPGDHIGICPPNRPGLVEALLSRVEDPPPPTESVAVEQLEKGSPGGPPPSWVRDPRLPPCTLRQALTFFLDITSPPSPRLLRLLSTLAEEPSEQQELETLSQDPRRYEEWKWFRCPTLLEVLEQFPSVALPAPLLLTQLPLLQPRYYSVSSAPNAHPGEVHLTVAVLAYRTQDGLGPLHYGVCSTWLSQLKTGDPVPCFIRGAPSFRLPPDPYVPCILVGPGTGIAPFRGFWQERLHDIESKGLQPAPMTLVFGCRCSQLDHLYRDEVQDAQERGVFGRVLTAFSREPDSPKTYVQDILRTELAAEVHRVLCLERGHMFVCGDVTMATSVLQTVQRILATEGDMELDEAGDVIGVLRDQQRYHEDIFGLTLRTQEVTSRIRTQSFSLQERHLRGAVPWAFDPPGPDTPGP

[4] = target: T2, Nitric oxide synthase, inducible (Mus musculus, UniProt P29477); assay: Inhibition of recombinant mouse macrophage iNOS expressed in Escherichia coli using L-arginine as substrate after 30 secs by hemoglobin capture assay
T2 sequence (P29477 whole entry): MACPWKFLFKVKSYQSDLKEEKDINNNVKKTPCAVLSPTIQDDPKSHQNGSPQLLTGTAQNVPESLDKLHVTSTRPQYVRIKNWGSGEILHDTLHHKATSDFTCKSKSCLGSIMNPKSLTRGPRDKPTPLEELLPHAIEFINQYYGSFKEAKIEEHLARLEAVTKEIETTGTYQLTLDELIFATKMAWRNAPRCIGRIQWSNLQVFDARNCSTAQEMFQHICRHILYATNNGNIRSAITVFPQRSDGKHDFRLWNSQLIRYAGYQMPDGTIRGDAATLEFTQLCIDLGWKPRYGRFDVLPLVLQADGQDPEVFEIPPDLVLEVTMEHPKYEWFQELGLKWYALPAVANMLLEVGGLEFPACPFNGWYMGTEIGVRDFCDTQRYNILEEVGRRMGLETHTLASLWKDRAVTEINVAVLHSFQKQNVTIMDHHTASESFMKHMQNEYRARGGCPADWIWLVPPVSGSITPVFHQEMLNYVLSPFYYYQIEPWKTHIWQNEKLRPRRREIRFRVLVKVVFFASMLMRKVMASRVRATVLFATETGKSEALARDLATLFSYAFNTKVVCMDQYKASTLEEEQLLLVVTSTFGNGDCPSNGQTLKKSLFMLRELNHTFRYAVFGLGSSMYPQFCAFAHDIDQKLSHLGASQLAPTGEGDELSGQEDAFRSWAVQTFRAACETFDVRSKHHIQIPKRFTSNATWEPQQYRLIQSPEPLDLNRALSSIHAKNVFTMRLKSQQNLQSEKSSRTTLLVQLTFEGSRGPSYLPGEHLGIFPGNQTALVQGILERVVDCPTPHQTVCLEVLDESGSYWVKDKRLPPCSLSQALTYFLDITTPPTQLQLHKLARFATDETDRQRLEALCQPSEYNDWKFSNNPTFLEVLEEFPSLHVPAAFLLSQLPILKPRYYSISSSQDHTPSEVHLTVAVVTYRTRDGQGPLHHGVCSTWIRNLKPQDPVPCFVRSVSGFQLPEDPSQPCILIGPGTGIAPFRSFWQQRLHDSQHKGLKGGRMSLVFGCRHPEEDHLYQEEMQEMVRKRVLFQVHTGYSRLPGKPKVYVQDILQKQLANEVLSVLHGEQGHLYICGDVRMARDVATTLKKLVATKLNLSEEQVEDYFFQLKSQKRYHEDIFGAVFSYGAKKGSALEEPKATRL

[5] = Permeability from basolateral to apical side in human Caco2 cells assessed as drug recovery at 10 uM after 2 hrs by LC/MS/MS analysis; type: ADME, cell-based; conditions: caco-2, 2 h
[6] = Permeability from apical to basolateral side in human Caco2 cells assessed as drug recovery at 10 uM after 2 hrs by LC/MS/MS analysis; type: ADME, cell-based; conditions: caco-2, 2 h

Chain of Nitric oxide synthase 1 (Rattus norvegicus, UniProt P29476) (P29476 whole entry): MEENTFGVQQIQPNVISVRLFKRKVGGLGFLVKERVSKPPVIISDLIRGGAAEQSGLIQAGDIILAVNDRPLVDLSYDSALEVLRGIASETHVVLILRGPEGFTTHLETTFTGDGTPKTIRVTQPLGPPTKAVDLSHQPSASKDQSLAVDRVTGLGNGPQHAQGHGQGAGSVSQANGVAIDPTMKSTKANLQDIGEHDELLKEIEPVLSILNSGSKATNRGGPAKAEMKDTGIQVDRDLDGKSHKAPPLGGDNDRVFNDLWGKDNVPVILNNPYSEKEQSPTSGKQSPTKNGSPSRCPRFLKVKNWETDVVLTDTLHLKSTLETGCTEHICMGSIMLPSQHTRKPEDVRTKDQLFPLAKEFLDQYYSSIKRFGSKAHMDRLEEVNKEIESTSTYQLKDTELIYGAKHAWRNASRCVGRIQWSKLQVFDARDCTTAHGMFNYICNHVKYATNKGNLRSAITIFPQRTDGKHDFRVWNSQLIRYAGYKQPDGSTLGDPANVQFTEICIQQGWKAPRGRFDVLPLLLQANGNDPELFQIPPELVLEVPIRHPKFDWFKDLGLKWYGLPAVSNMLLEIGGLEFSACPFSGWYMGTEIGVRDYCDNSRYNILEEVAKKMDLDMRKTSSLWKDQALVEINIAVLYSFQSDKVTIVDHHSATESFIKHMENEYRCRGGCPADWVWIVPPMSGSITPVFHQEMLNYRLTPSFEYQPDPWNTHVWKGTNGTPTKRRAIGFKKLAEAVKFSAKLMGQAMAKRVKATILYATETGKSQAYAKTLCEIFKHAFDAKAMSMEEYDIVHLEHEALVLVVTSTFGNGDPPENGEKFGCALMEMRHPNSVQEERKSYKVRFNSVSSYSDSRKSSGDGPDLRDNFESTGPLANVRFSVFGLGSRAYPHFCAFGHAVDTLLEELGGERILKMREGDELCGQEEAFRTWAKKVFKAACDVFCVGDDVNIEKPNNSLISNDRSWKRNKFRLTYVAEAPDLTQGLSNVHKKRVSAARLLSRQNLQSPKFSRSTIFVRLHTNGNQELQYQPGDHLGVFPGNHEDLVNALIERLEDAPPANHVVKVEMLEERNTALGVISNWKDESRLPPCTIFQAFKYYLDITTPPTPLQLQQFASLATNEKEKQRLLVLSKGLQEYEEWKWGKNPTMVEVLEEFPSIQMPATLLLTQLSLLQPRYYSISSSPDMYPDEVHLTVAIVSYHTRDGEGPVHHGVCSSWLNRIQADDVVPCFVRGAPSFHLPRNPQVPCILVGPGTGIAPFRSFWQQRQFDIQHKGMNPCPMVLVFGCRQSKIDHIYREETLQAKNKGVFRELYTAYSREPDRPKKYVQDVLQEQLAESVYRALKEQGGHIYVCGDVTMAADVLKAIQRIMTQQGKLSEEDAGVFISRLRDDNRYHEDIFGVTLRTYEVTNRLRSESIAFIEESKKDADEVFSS
Chain of Nitric oxide synthase 1 (Homo sapiens, UniProt P29475) (P29475 whole entry): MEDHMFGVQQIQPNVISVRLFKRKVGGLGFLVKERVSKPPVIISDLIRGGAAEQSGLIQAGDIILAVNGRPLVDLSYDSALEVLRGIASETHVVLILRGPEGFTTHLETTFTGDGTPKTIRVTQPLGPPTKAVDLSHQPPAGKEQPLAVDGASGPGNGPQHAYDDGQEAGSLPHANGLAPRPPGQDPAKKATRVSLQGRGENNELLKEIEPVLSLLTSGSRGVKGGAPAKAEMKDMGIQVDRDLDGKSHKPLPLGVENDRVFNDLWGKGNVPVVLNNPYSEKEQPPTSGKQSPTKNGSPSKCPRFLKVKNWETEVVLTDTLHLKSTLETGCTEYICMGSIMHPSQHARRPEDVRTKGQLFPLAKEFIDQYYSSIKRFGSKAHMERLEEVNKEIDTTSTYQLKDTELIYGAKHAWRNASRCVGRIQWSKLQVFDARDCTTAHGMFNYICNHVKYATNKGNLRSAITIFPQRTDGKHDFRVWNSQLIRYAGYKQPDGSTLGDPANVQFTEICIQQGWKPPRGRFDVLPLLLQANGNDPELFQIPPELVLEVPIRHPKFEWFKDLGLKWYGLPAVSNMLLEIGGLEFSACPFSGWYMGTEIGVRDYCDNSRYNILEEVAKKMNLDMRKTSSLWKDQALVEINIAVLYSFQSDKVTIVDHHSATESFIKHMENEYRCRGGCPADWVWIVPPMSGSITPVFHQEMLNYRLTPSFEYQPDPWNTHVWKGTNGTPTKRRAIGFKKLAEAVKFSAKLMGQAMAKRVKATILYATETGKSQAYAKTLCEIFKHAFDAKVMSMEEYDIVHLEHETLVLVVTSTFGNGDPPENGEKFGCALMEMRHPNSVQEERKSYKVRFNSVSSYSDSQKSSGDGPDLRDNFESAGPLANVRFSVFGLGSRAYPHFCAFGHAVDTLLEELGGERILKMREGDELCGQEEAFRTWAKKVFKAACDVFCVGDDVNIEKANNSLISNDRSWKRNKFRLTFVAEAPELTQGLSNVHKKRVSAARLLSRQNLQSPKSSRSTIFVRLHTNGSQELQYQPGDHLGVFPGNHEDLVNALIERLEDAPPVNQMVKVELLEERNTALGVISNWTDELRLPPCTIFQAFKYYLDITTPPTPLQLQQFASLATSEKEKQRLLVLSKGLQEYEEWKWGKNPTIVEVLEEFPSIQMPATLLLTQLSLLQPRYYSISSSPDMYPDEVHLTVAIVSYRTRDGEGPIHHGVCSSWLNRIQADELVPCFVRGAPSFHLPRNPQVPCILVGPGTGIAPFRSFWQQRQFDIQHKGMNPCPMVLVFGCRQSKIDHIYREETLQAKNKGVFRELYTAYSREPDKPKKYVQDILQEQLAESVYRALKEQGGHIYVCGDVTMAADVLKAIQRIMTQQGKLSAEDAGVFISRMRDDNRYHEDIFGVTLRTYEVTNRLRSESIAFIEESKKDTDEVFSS

Drug recovery [5] [%]	Drug recovery [6] [%]	SMILES	Ki [1] [nM]	Ki [2] [nM]	Ki [3] [nM]	Ki [4] [nM]
		Nc1ccc2ccc(CNCCCc3cccnc3)cc2n1	38	108	1040	
		CN(C)c1ccc(CNCc2ccc3ccc(N)nc3c2)cc1	522		8420	42200
83	58.5	Cc1cc(CCNCc2ccc3c(C)cc(N)nc3c2)ccc1C#N				
		Cc1ccncc1CCCNCc1ccc2ccc(N)nc2c1		130	562	13800
		CN(C)c1cccc(CNCc2ccc3ccc(N)nc3c2)c1	421	1020	6530	30100
		COc1ccncc1CCCNCc1ccc2ccc(N)nc2c1				17200
